# Experiments:
# [1] = system: ecDNA+ FGFR2 amplified SNU-16 CDX tumor model; experiment: Durability of anti-tumor response in SNU-16 CDX model, subsequent study; type: in vivo, Female BALB/c nude mice; conditions: single agents vs vehicle: Compound 1 50 mg/kg PO Q2D, infigratinib 15 mg/kg PO QD
# From the text: (§1) Tumor volume (mm^3) data are shown as mean z SEM for each treatment group. […] PO: orally, mpk: mg/kg, QD: once per day, Q2D: once every other day.
# [2] = system: ecDNA+ FGFR2 amplified SNU-16 CDX tumor model; experiment: Anti-tumor and PD activity in ecDNA+ FGFR2 amplified SNU-16 CDX model, first study; type: in vivo, female SCID beige mice
# From the text: as §1
# [3] = system: ecDNA+ CDK4 amplified SJSA-1 CDX tumor model; experiment: Anti-tumor activity in ecDNA+ CDK4 amplified osteosarcoma SJSA-1 CDX model; type: in vivo, Female Hsd:Athymic Nude-Foxnlnu mice; conditions: vs vehicle
# From the text: Tumor volume (mm^3) data are shown as mean±SEM for each treatment group. […] PO: orally, QD: once every day, Q2D: once every other day.
Compound,mean % ΔTGI [1] [%],"mean % ΔTGI ([2]; Day 12 vs vehicle, single agents: Compound 1 100 mg/kg PO Q2D, infigratinib 15 mg/kg PO QD) [%]",antitumor activity (in words) ([2]; infigratinib 15 mg/kg PO QD alone or with Compound 1 PO Q2D),"tumor FGFR2 gene copy number (qPCR) ([2]; tumors treated for 12 days, infigratinib 15 mg/kg PO QD alone or with Compound 1 25, 50, 100 mg/kg PO Q2D)","mean % ΔTGI ([3]; single agent 20 mg/kg PO QD, Study 2 (FIG. 3B)) [%]","mean % ΔTGI ([3]; single agent 50 mg/kg PO QD, Study 1 (FIG. 3A)) [%]"
CCN1CCN(c2ccc(Nc3cc(N(C)C(=O)Nc4c(Cl)c(OC)cc(OC)c4Cl)ncn3)cc2)CC1 [infigratinib],65.4,97.6,tumors resumed growth,concomitant increase in FGFR2 gene copy number,–,–
CC(=O)c1c(C)c2cnc(Nc3ccc(N4CCNCC4)cn3)nc2n(C2CCCC2)c1=O [palbociclib],–,–,–,–,16.9,78.3

# Source: patent US20260263454A1, “USES OF A CHECKPOINT KINASE 1 (CHK1) INHIBITOR” (Boundless Bio, Inc., priority 2023, published 2026)
